# Measured values as given in ChEMBL document CHEMBL1201862, “PubChem BioAssay data set” (2004).
#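 Dose response: 5 concentrations. Exposure: 48 h. Format: 96-well plates. Endpoint: linear interpolation; highest concentration if not reached. The concentration for 50% growth inhibition is given as GI50.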 Activity calls are given as the source filed them. Cut-off read from the data, not from the text of the source: active = GI50 up to about 1.1 µM and inactive = higher.
# Columns and labels:
# Assay in all cases: NCI anticancer screen, dose series, 48 h
# MOLT-4 = system: MOLT-4
# OVCAR-5 = system: OVCAR-5
# CAKI-1 = system: CAKI-1
# LOX IMVI = system: LOX IMVI
# HOP-92 = system: HOP-92
# HCT-15 = system: HCT-15
# A549 = system: A549
# COLO 205 = system: COLO 205
# NCI-H226 = system: NCI-H226
# OVCAR-4 = system: OVCAR-4
# U-251 = system: U-251
# IGROV-1 = system: IGROV-1
# SNB-19 = system: SNB-19
# UACC-62 = system: UACC-62
# XF498 = system: XF498
# SW-620 = system: SW-620
# RXF 631 = system: RXF 631
# NCI-H522 = system: NCI-H522
# M19-MEL = system: M19-MEL
# LXFL 529 = system: LXFL 529
# SK-MEL-5 = system: SK-MEL-5
# KM12 = system: KM12
# SK-MEL-2 = system: SK-MEL-2
# HT-29 = system: HT-29
# HL-60 = system: HL-60
# HCC 2998 = system: HCC 2998
# TK-10 = system: TK-10
# EKVX = system: EKVX
# SN12C = system: SN12C
# SR = system: SR
# SF-295 = system: SF-295
# HOP-18 = system: HOP-18
# UACC-257 = system: UACC-257
# SNB-78 = system: SNB-78
# UO-31 = system: UO-31
# ACHN = system: ACHN
# SK-MEL-28 = system: SK-MEL-28
# HCT-116 = system: HCT-116
# OVCAR-8 = system: OVCAR-8
# SK-OV-3 = system: SK-OV-3
# NCI-H460 = system: NCI-H460
# DLD-1 = system: DLD-1
# K562 = system: K562
# OVCAR-3 = system: OVCAR-3
# RPMI-8226 = system: RPMI-8226
# SNB-75 = system: SNB-75
# M14 = system: M14
# NCI-H23 = system: NCI-H23
# 786-0 = system: 786-0
# CCRF-CEM = system: CCRF-CEM
# Malme-3M = system: Malme-3M
# SF-539 = system: SF-539
# KM-20L2 = system: KM-20L2
# DMS-114 = system: DMS-114
# HOP-62 = system: HOP-62
# DMS-273 = system: DMS-273
# A498 = system: A498
# RXF 393 = system: RXF 393
# SF-268 = system: SF-268
structure (smiles),measurement,setting,value
COc1cc2cc[n+]3c4cc(OC)c(OC)cc4c(C)cc3c2cc1OC,GI50,MOLT-4,> 100 µM (inactive)
same,GI50,OVCAR-5,> 100 µM (inactive)
same,GI50,CAKI-1,> 100 µM (inactive)
same,GI50,LOX IMVI,> 100 µM (inactive)
same,GI50,HOP-92,> 100 µM (inactive)
same,GI50,HCT-15,> 100 µM
same,GI50,A549,> 100 µM (inactive)
same,GI50,COLO 205,89.1 µM (inactive)
same,GI50,NCI-H226,> 100 µM (inactive)
same,GI50,OVCAR-4,> 100 µM (inactive)
same,GI50,U-251,70 µM (inactive)
same,GI50,IGROV-1,> 100 µM (inactive)
same,GI50,SNB-19,29.3 µM (inactive)
same,GI50,UACC-62,> 100 µM (inactive)
same,GI50,XF498,> 100 µM (inactive)
same,GI50,SW-620,> 100 µM (inactive)
same,GI50,RXF 631,> 100 µM (inactive)
same,GI50,NCI-H522,> 100 µM (inactive)
same,GI50,M19-MEL,> 100 µM (inactive)
same,GI50,LXFL 529,35.6 µM (inactive)
same,GI50,SK-MEL-5,> 100 µM (inactive)
same,GI50,KM12,> 100 µM (inactive)
same,GI50,SK-MEL-2,> 100 µM (inactive)
same,GI50,HT-29,> 100 µM (inactive)
same,GI50,HL-60,> 100 µM (inactive)
same,GI50,HCC 2998,61.8 µM (inactive)
same,GI50,TK-10,> 100 µM (inactive)
same,GI50,EKVX,> 100 µM (inactive)
same,GI50,SN12C,> 100 µM (inactive)
same,GI50,SR,> 100 µM (inactive)
same,GI50,SF-295,> 100 µM (inactive)
same,GI50,HOP-18,> 100 µM (inactive)
same,GI50,UACC-257,88.7 µM (inactive)
same,GI50,SNB-78,> 100 µM (inactive)
same,GI50,UO-31,> 100 µM (inactive)
same,GI50,ACHN,> 100 µM (inactive)
same,GI50,SK-MEL-28,> 100 µM (inactive)
same,GI50,HCT-116,> 100 µM (inactive)
same,GI50,OVCAR-8,> 100 µM (inactive)
same,GI50,SK-OV-3,> 100 µM (inactive)
same,GI50,NCI-H460,> 100 µM (inactive)
same,GI50,DLD-1,> 100 µM (inactive)
same,GI50,K562,> 100 µM (inactive)
same,GI50,OVCAR-3,> 100 µM (inactive)
same,GI50,RPMI-8226,> 100 µM (inactive)
same,GI50,SNB-75,44.7 µM (inactive)
same,GI50,M14,> 100 µM (inactive)
same,GI50,NCI-H23,> 100 µM (inactive)
same,GI50,786-0,> 100 µM (inactive)
same,GI50,CCRF-CEM,> 100 µM (inactive)
same,GI50,Malme-3M,> 100 µM (inactive)
same,GI50,SF-539,> 100 µM (inactive)
same,GI50,KM-20L2,> 100 µM (inactive)
same,GI50,DMS-114,> 100 µM (inactive)
same,GI50,HOP-62,> 100 µM (inactive)
same,GI50,DMS-273,> 100 µM (inactive)
CC(=O)NC(Cc1ccccc1)C(=S)N1CCCC1 (centres undefined),GI50,MOLT-4,> 100 µM (inactive)
same,GI50,OVCAR-5,> 100 µM (inactive)
same,GI50,CAKI-1,> 100 µM (inactive)
same,GI50,LOX IMVI,> 100 µM (inactive)
same,GI50,HOP-92,> 80.5 µM (inactive)
same,GI50,HCT-15,> 100 µM
same,GI50,A549,> 100 µM (inactive)
same,GI50,COLO 205,> 100 µM (inactive)
same,GI50,NCI-H226,> 100 µM (inactive)
same,GI50,OVCAR-4,> 100 µM (inactive)
same,GI50,U-251,> 100 µM (inactive)
same,GI50,IGROV-1,> 100 µM (inactive)
same,GI50,SNB-19,> 100 µM (inactive)
same,GI50,UACC-62,> 100 µM (inactive)
same,GI50,XF498,> 100 µM (inactive)
same,GI50,SW-620,> 100 µM (inactive)
same,GI50,A498,> 100 µM (inactive)
same,GI50,RXF 393,> 100 µM (inactive)
same,GI50,RXF 631,> 100 µM (inactive)
same,GI50,NCI-H522,> 100 µM (inactive)
same,GI50,M19-MEL,> 100 µM (inactive)
same,GI50,LXFL 529,> 100 µM (inactive)
same,GI50,SK-MEL-5,> 100 µM (inactive)
same,GI50,KM12,> 100 µM (inactive)
same,GI50,SK-MEL-2,> 100 µM (inactive)
same,GI50,HT-29,> 100 µM (inactive)
same,GI50,HL-60,> 100 µM (inactive)
same,GI50,HCC 2998,> 100 µM (inactive)
same,GI50,TK-10,> 100 µM (inactive)
same,GI50,EKVX,> 100 µM (inactive)
same,GI50,SN12C,> 100 µM (inactive)
same,GI50,SF-268,> 100 µM (inactive)
same,GI50,SF-295,> 100 µM (inactive)
same,GI50,HOP-18,15.3 µM (inactive)
same,GI50,UACC-257,> 100 µM (inactive)
same,GI50,SNB-78,> 100 µM (inactive)
same,GI50,UO-31,> 100 µM (inactive)
same,GI50,ACHN,> 100 µM (inactive)
same,GI50,SK-MEL-28,> 100 µM (inactive)
same,GI50,HCT-116,> 100 µM (inactive)
same,GI50,OVCAR-8,> 100 µM (inactive)
same,GI50,SK-OV-3,> 100 µM (inactive)
same,GI50,NCI-H460,> 100 µM (inactive)
same,GI50,DLD-1,> 100 µM (inactive)
same,GI50,K562,> 100 µM (inactive)
same,GI50,OVCAR-3,> 100 µM (inactive)
same,GI50,RPMI-8226,> 100 µM (inactive)
same,GI50,SNB-75,55.3 µM (inactive)
same,GI50,M14,> 100 µM (inactive)
same,GI50,NCI-H23,> 100 µM (inactive)
same,GI50,786-0,> 100 µM (inactive)
same,GI50,CCRF-CEM,> 100 µM (inactive)
same,GI50,Malme-3M,> 100 µM (inactive)
same,GI50,SF-539,> 100 µM (inactive)
same,GI50,KM-20L2,> 100 µM (inactive)
same,GI50,DMS-114,> 100 µM (inactive)
same,GI50,HOP-62,> 100 µM (inactive)
same,GI50,DMS-273,> 100 µM (inactive)
